Laboratory results published in US9877980B2, “Method and composition for treatment or prevention of type 2 diabetes and hyperlipidemia” (Chun-Ching Shih, priority 2016, dated 2018).

Assays:
Format in all cases: in vivo
Settings in all cases: HFD mice, 4 weeks, vs HF group
Akt = experiment: Western blotting of phospho-Akt/total Akt in skeletal muscle and liver
Protocol: (§1) The following experiment was performed and approved by the guidelines of the Institutional Animal Care and Use Committee of Central Taiwan University of Science and Technology. The 4-week old male C57BL/6J mice (total amount n=63) were purchased from the National Laboratory Animal Breeding and Research Center (Taipei, Taiwan). After acclimatization for one week, all of the mice were divided randomly into the control (CON) group and the high-fat diet (HFD) group. For the following 12 weeks, the CON group (n=9) was kept on a low-fat diet (Diet 12450B, Research Diets, Inc., New Brunswick, N.J., USA), while the HFD group (n=54) was exposed to a high-fat diet (Diet 12451, Research Diets, New Brunswick, N.J., USA). The low-fat diet was composed of protein 20%, carbohydrate 70% and fat 10%, whereas the high-fat diet was composed of protein 20%, carbohydrate 35%, and fat 45% (of total energy, % kcal). After HFD exposure for 8 weeks, the HFD group was further randomly subdivided into 6 groups (n=9 per group) to receive different treatments by oral gavage once daily for four weeks and on HFD. […] The HF+B1, HF+B2, and […] are collectively termed BB-treated HFD groups in the following examples. The CON mice were administered vehicle. After dosing for 4 weeks, the mice were given no food at night and sacrificed after 12 h of fasting on the next day. All of the individual tissues were collected and weighed, and portions were instantly frozen using liquid nitrogen and kept at −80° C. for subsequent target gene analysis. Blood samples (0.8 mL) were collected for analysis of blood parameters.
(§2) Protein extractions and immunoblots for the determination of phospho-AMPK (Thr^172) and phospho-Akt (Ser^473) proteins in skeletal muscle and liver tissue of mice (n=9) were carried out. About 0.1 g of liver tissue and skeletal muscle was used for the homogenate samples. Samples were powdered under liquid nitrogen and homogenized for 20 seconds in 500 μL buffer containing 20 mM Tris-HCL1 (pH 7.4 at 4° C.), 2% SDS, 5 mM EDTA, 5 mM EGTA, 1 mM DTT, 100 mM NaF, 2 mM sodium vanadate, 0.5 mM phenylmethylsulfonyl fluoride, 10 μg/mL leupeptin, and […] pepstatin. The protein concentration in supernatant was determined with a BCA protein assay kit (Thermo Scientific, Rockford, Ill., USA). 20 μg of proteins were separated by electrophoresis on a polyacrylamide gel 12% (SDS-PAGE) and transferred to a nitrocellulose membrane. The membranes were blocked with 5% slim milk in Tris-buffered saline (TBS)(Amersham BioSciences, Uppsala, Sweden) containing 0.05% Tween-20 (Bio Rad, CA, USA) and incubated overnight at 4° C. with anti-phospho-AMPK (Abcam Inc., Cambridge, Mass., USA) and anti-phospho-Akt (Cell signaling Technology, Inc., Danvers, Mass., USA) rabbit polyclonal antibodies at 1:200 dilution. Subsequently, the membranes were washed three times with TBS containing 0.05% Tween-20 and incubated with secondary antibody anti-rabbit (1:1000) (Jackson ImmunoResearch Laboratories, Inc., PA, USA) for 1 hour. Immunoreactive bands were detected with ECL reagent kit (GE Healthcare BioSciences, Buckinghamshire, UK). The intensity of blotting was analyzed using Alpha Easy FC software (Alpha Innotech Corporation, Randburg, South Africa). Structural proteins GAPDH (Santa Cruz Biotechnology, CA, USA) in the samples were used as the loading control.

DGAT2 = experiment: Semi-quantitative RT-PCR of liver mRNA: DGAT2
Protocol: as §1, with “For the following 12 weeks, the CON group (n=9) was kept on a low-fat diet (Diet 12450B, Research Diets, Inc., New Brunswick, N.J., USA), while the HFD group (n=54) was exposed to a high-fat diet (Diet 12451, Research Diets, New Brunswick, N.J., USA). The low-fat diet was composed of protein 20%, carbohydrate 70% and fat 10%, whereas the high-fat diet was composed of protein 20%, carbohydrate 35%, and fat 45% (of total energy, % kcal).” left out
(§3) Total RNA from liver tissue of mice was isolated with a Trizol Reagent (Molecular Research Center, Inc., Cincinnati, Ohio, USA) according to the manufacturer's instructions. The integrity of the extracted total RNA was examined by 2% agarose gel electrophoresis, and the RNA concentration was determined by the ultraviolet (UV) light absorbency at 260 nm and 280 nm (Spectrophotometer U-2800A, Hitachi). The quality of the RNA was confirmed by ethidium bromide staining of 18S and 28S ribosomal RNA after electrophoresis on 2% agarose gel containing 6% formaldehyde.
(§4) Levels of mRNA of genes of interest were quantified by semi-quantitative reverse transcription polymerase chain reaction (RT-PCR). […] PCR products were analyzed by 2% agarose gels and stained with ethidium bromide.

AMPK = experiment: Western blotting of phospho-AMPK/total AMPK in skeletal muscle and liver
Protocol: as §1, §2

PPARα = experiment: Semi-quantitative RT-PCR of liver mRNA: PPARα
Protocol: as §1, with “For the following 12 weeks, the CON group (n=9) was kept on a low-fat diet (Diet 12450B, Research Diets, Inc., New Brunswick, N.J., USA), while the HFD group (n=54) was exposed to a high-fat diet (Diet 12451, Research Diets, New Brunswick, N.J., USA). The low-fat diet was composed of protein 20%, carbohydrate 70% and fat 10%, whereas the high-fat diet was composed of protein 20%, carbohydrate 35%, and fat 45% (of total energy, % kcal).” left out
as §3, §4

11β-HSD1 = experiment: Semi-quantitative RT-PCR of liver mRNA: 11β-HSD1
Protocol: as §1, with “For the following 12 weeks, the CON group (n=9) was kept on a low-fat diet (Diet 12450B, Research Diets, Inc., New Brunswick, N.J., USA), while the HFD group (n=54) was exposed to a high-fat diet (Diet 12451, Research Diets, New Brunswick, N.J., USA). The low-fat diet was composed of protein 20%, carbohydrate 70% and fat 10%, whereas the high-fat diet was composed of protein 20%, carbohydrate 35%, and fat 45% (of total energy, % kcal).” left out
as §3, §4

[1] = liver, 10 mg/kg/day oral gavage
[2] = liver, 20 mg/kg/day oral gavage
[3] = liver, 40 mg/kg/day oral gavage
[4] = skeletal muscle, 10 mg/kg/day oral gavage
[5] = skeletal muscle, 20 mg/kg/day oral gavage
[6] = skeletal muscle, 40 mg/kg/day oral gavage

Q: What does the source list for `OCC1O[C@@H](O[C@@H]2Cc3c(O)cc(O)cc3O[C@@H]2c2ccc(O)c(O)c2)C(O)C(O)[C@@H]1O` (single isomer, unassigned; (-)) [compound of formula I, (−)-epicatechin-3-O-β-D-allopyranoside]?
A: expression level of phospho-Akt/total Akt (Akt; [1]): increased; expression level of phospho-Akt/total Akt (Akt; [2]): increased; expression level of phospho-Akt/total Akt (Akt; [3]): increased; expression level of phospho-Akt/total Akt (Akt; [4]): increased; expression level of phospho-Akt/total Akt (Akt; [5]): increased; expression level of phospho-Akt/total Akt (Akt; [6]): increased; liver mRNA level of DGAT2 (DGAT2; 10 mg/kg/day oral gavage): significantly reduced; liver mRNA level of DGAT2 (DGAT2; 20 mg/kg/day oral gavage): significantly reduced; liver mRNA level of DGAT2 (DGAT2; 40 mg/kg/day oral gavage): significantly reduced; expression level of phospho-AMPK/total AMPK (AMPK; [1]): enhanced; expression level of phospho-AMPK/total AMPK (AMPK; [2]): enhanced; expression level of phospho-AMPK/total AMPK (AMPK; [3]): enhanced; expression level of phospho-AMPK/total AMPK (AMPK; [4]): enhanced; expression level of phospho-AMPK/total AMPK (AMPK; [5]): enhanced; expression level of phospho-AMPK/total AMPK (AMPK; [6]): enhanced; liver PPARα mRNA level (PPARα; 10 mg/kg/day oral gavage): enhanced; liver PPARα mRNA level (PPARα; 20 mg/kg/day oral gavage): enhanced; liver PPARα mRNA level (PPARα; 40 mg/kg/day oral gavage): enhanced; liver mRNA level of 11β-HSD1 (11β-HSD1; 10 mg/kg/day oral gavage): significantly reduced; liver mRNA level of 11β-HSD1 (11β-HSD1; 20 mg/kg/day oral gavage): significantly reduced; liver mRNA level of 11β-HSD1 (11β-HSD1; 40 mg/kg/day oral gavage): significantly reduced
